From paper PMC6274076, “Discovery of Uracil Derivatives as Potent Inhibitors of Fatty Acid Amide Hydrolase” (Molecules, 2016)
Several values for one entry are separate records, joined by “and”; a condition that tells them apart may be missing. Equal values may be shown once. Read-outs that look alike come from different tables or passages of the source.

Experiments:
[1] = biological target: T1, recombinant rat FAAH (rFAAH) (Rattus norvegicus, UniProt P97612); assay: FAAH enzyme activity assay (AEA hydrolysis, HPLC-MS/MS); type: biochemical; conditions: for FAAH inhibitory activity (in words): rFAAH enzyme assay; for fold decrease in FAAH inhibitory potency vs. compound 1: compared with parent compound 1
T1 construct: expressed in transfected cells; host or cells: HEK293-rFAAH cells (homogenate supernatant)
T1 sequence (P97612 1-579): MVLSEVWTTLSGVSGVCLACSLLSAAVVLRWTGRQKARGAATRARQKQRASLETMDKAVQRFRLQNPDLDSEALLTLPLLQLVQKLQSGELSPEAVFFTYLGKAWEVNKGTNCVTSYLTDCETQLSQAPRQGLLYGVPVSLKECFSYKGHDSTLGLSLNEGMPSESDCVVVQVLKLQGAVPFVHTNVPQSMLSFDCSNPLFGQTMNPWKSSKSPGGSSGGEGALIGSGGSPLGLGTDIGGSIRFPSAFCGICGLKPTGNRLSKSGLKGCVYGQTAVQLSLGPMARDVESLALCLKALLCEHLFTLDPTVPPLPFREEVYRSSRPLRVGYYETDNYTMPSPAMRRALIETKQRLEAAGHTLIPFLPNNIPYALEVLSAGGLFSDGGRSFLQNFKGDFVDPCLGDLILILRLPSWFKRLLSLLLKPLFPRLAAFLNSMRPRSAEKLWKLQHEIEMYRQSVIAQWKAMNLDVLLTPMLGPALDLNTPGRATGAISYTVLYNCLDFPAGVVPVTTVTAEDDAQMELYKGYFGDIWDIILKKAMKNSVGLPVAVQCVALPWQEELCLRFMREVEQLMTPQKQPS
Procedure: The substituted 2,4-dioxopyrimidine-1-carboxamides and the related analogues described above were subjected to in vitro biological evaluation toward recombinant rat FAAH derived from HEK293-rFAAH cell. Enzyme assays were performed at 37 °C by incubating 30 µg of rFAAH protein with 25 μM anandamide as substrate in Tris-HCl buffer containing fatty acid-free BSA (0.05%). When the reactions were terminated, 1 nmol heptadecanoic acid (17:0 FFA) was added as an internal standard. […] The hydrolyzate of AEA (arachidonic acid), together with heptadecanoic acid was detected in HPLC/MS/MS to estimate the potency of rFAAH inhibition according to the methods previously described.
The inhibition effects of uracil derivatives toward recombinant rat FAAH (rFAAH) were assessed by enzyme activity assay. HEK293-rFAAH cells were harvested, washed with PBS, sonicated in 20 mM Tris-HCl (pH 7.5) containing 0.32 M sucrose, and centrifuged at 800× g for 15 min at 4 °C. The supernatants were collected and protein concentrations were measured by BCA protein assay kit (Pierce, Shanghai, China). FAAH proteins (30 μg) were incubated at 37 °C for 30 min in Tris buffer (50 mM, pH = 8.0) containing fatty acid-free BSA (0.05%) and 25 μM AEA (Sigma-Aldrich, Shanghai, China) as substrate. The above reactions were stopped by adding 200 μL methanol containing 1 nmol heptadecanoic acid (17:0 FFA) as internal standard. The reaction mixture was extracted with 4 mL chloroform and then vortex for 1 min. Lipid layer was separated by centrifugation at 3000× g for 10 min and then transferred to a clean 10 mL V-bottom glass tube and dried under nitrogen (N2) flow. After redissolved with 1 mL CHCl3, the lipid solution went through the solid-phase extraction, and was eluted by methanol/chloroform (v/v, 1/9). The elution containing FAEs and FFAs was dried under N2, and reconstituted in 100 μL methanol for HPLC-MS/MS analysis.
Samples were detected by an ABI 3200 Q-Trap mass spectrometer (Applied Biosystems/MDS Sciex) equipped with 1100-LC system (Agilent, Shanghai, China). The mobile phase for FFAs detection was consisted of MeOH and ultra-pure H2O (pH = 7.4, each containing 0.25% acetic acid and 5 mmol/L ammonium acetate), and the elution condition was 95% methanol keeping for 3 min at a flow rate of 1.0 mL·min^−^1. The column temperature was kept at 40 °C. Ion detection was monitored by ESI negative mode. The molecular ions were monitored at m/z 303 for AA, and m/z 269 for C17:0 FFA. Inhibition curves and IC50 values of each compounds was calculated by GraphPad Prism (version 5.01, GraphPad Software Inc., San Diego, CA, USA).

[2] = rFAAH protein 30 μg from HEK293-rFAAH cells, 25 μM anandamide, 37 °C, 30 min, Tris buffer pH 8.0, read-out: IC50 of FAAH Inhibition
[3] = as stated in abstract, read-out: IC50 (FAAH inhibition)

| Structure (SMILES) | IC50 [1, 2] | other results |
| --- | --- | --- |
| CCCCCCNC(=O)n1ccc(=O)[nH]c1=O [Compound 1, N-Hexyl-2,4-dioxo-pyrimidine-1-carboxamide] | 110 ± 30 nM |  |
| CCCCCCNC(=O)N1CCC(=O)NC1=O [Compound 2, N-Hexyl-2,4-dioxotetrahydropyrimidine-1-carboxamide] | > 10000 nM | FAAH inhibitory activity (in words) [1]: no inhibitory activity |
| CCCCCCNC(=O)N1CCCNC1=O [Compound 3, N-Hexyl-2-oxotetrahydropyrimidine-1-carboxamide] | > 10000 nM | FAAH inhibitory activity (in words) [1]: loss of FAAH inhibitory activities |
| CCCCCCNC(=O)n1ccc(=O)n(C)c1=O [Compound 4, N-Hexyl-3-methyl-2,4-dioxopyrimidine-1-carboxamide] | 860 ± 80 nM | fold decrease in FAAH inhibitory potency vs. compound 1 [1]: 8- to 10 fold |
| CCCCCCNC(=O)n1cc(C)c(=O)[nH]c1=O [Compound 5, N-Hexyl-5-methyl-2,4-dioxopyrimidine-1-carboxamide] | 250 ± 30 nM | fold decrease in FAAH inhibitory potency vs. compound 1 [1]: 2- to 3 fold |
| CCCCCCNC(=O)n1c(C)cc(=O)[nH]c1=O [Compound 6, N-Hexyl-6-methyl-2,4-dioxopyrimidine-1-carboxamide] | 1270 ± 210 nM | fold decrease in FAAH inhibitory potency vs. compound 1 [1]: 8- to 10 fold |
| O=C(NCCc1ccccc1)n1ccc(=O)[nH]c1=O [Compound 7, N-(2-Phenylethyl)-2,4-dioxopyrimidine-1-carboxamide] | 300 ± 70 nM | fold decrease in FAAH inhibitory potency vs. compound 1 [1]: 3 fold |
| Cc1cn(C(=O)NCCc2ccccc2)c(=O)[nH]c1=O [Compound 8, 5-Methyl-N-(2-phenylethyl)-2,4-dioxopyrimidine-1-carboxamide] | 1070 ± 140 nM |  |
| COc1cn(C(=O)NCCc2ccccc2)c(=O)[nH]c1=O [Compound 9, 5-Methoxy-N-(2-phenylethyl)-2,4-dioxopyrimidine-1-carboxamide] | 530 nM and 531 nM |  |
| O=C(NCCc1ccccc1)n1cc(F)c(=O)[nH]c1=O [Compound 10, 5-Fluoro-N-(2-phenylethyl)-2,4-dioxopyrimidine-1-carboxamide] | 98 ± 10 nM |  |
| O=C(NCCc1ccccc1)n1cc(C(F)(F)F)c(=O)[nH]c1=O [Compound 11, N-(2-Phenylethyl)-5-trifluoromethyl-2,4-dioxopyrimidine-1-carboxamide] | 21 ± 4 nM | IC50 [1, 3]: 21 nM |
| O=C(NCc1ccc2ccccc2c1)n1ccc(=O)[nH]c1=O [Compound 12] |  | melting point: 84 to 84.6 °C |
| O=C(NCc1ccc(-c2ccccc2)cc1)n1ccc(=O)[nH]c1=O [Compound 14, N-[2-(4-Biphenyl)methyl]-2,4-dioxopyrimidine-1-carboxamide] | 53 ± 6 nM | IC50 [1, 3]: 53 nM |
| O=C(NCc1ccc(-c2ccccc2)cc1)n1cc(F)c(=O)[nH]c1=O [Compound 15, N-[2-(4-biphenyl)methyl]-5-fluoro-2,4-dioxo-pyrimidine-1-carboxamide] | 100 ± 10 nM | fold less potent vs. compound 14 ([1]; compared with compound 14): 2 fold |
| O=C(Nc1cn(C(=O)NCCc2ccccc2)c(=O)[nH]c1=O)OCc1ccccc1 [Compound 16, Benzyl (2,4-dioxo-1-{[(2-phenylethyl)amino]carbonyl}-1,2,3,4-tetrahydro-5-pyrimidinyl)carbamate (2H)-carboxamide] | 120 ± 30 nM | increase of FAAH inhibitory potency vs. compound 17 ([1]; compared with compound 17): about 10 times |
| Nc1cn(C(=O)NCCc2ccccc2)c(=O)[nH]c1=O [Compound 17, 5-Amino-N-(2-phenylethyl)-2,4-dioxopyrimidine-1-carboxamide] | 1330 ± 130 nM |  |
| O=C(NCCc1ccccc1)n1cc(O)c(=O)[nH]c1=O [Compound 18, 5-hydroxy-N-(2-phenylethyl)-2,4-dioxopyrimidine-1-carboxamide] | 540 ± 70 nM |  |
| CCCCCCCn1ccc(=O)[nH]c1=O [Compound 19, 1-Heptyl-2,4-dioxopyrimidine] | > 100000 nM | FAAH inhibitory activity (in words) [1]: not inhibited at all |
| CCCCCCCn1cc(F)c(=O)[nH]c1=O [Compound 20, 5-Fluoro-1-heptyl-2,4-dioxopyrimidine] | > 100000 nM | FAAH inhibitory activity (in words) [1]: not inhibited at all |
| CCCCCCNC(=O)Cn1cc(F)c(=O)[nH]c1=O [Compound 21, 2-[5-Fluoro-2,4-dioxopyrimidinyl]-N-hexylacetamide] | > 100000 nM | FAAH inhibitory activity (in words) [1]: total loss of the FAAH inhibitory activity |
